Source: patent publication US20050260555A1, “Chemosensitivity measurement using caspase activity” (Evotec Analytical Systems GmbH, priority 1999, published 2005)
*1 amine or outer side, *2 acyl side, *3 side chain or, on linkers, in order; H or OH if unused. Where a SMILES comes first, the peptide text is derived from it. Bridges are numbered along the chain shown (N, C = ends). Roman numbers before positions name the chains, in order. [ ]: non-standard residue; d: D form. Actinocin(9to1) = Cc1c2oc3c(C)ccc(C(=O)[*:1])c3nc-2c(C(=O)[*:2])c(N)c1=O; NMeV = CN[C@H](C(=O)O)C(C)C; Sar = CNCC(=O)O

Key:
Assay type in all cases: cell-based
U937 cells = assay: Chemosensitivity of U937 cells, accumulated caspase activity; conditions: cell line U937, FIG. 3; for effectiveness (apoptosis induction) as concentration increases: average from three independent experiments
Description: (§1) This object is achieved by a method for determining the chemosensitivity of cells towards at least one substance by measuring the apoptosis induced by said at least one substance, wherein the apoptosis is determined from the accumulated caspase activity of a sample comprising cells and a medium by adding said at least one substance to the sample followed by incubation, and measuring the accumulated caspase activity in the sample upon disruption of the cells without previously separating off the cells. In particular, the method according to the invention permits the use of substrates which are hardly cell-permeating or not cell-permeating at all.
(§2) It is essential that the accumulated caspase activity is measured. In this approach, cells, e.g., tumor cells of a patient, are incubated with at least one substance (e.g., cytostatic agent) for an extended period of time so that all effective pharmaceuticals, even the slowly acting, have had enough time to induce apoptosis. Subsequently, for example, a substrate present in a lysis buffer is added, and after the cell lysis has been effected, the total caspase activity formed, i.e., the accumulated activity, of the cellular suspension is measured. […] The conventionally determined (with a washing step) caspase activity increases at the same rate as the accumulated caspase activity, but decreases when the secondary necrosis begins (see FIG. 1). Thus, the principle of measuring the accumulated caspase activity permits to detect the effect of substances on the cells by a single caspase activity measurement. This test has a low need of cells and can be performed as a routine test by laboratory or technical assistants within a short time. Due to the easy automation, the personnel expenditure for performing the test is low. Since the test can be performed on ELISA reading devices, which are available everywhere, no investment in equipment is necessary. Miniaturization is possible to further reduce the consumption of materials. It could be shown that cells can be kept in culture for some days in less than 10 μl of medium. The reduction of the number of cells per sample compartment from 100 to 1000 per test enables highly parallel analyses of samples with extremely few cells from patients, e.g., from fine needle biopsies. The low need of cells also permits the high throughput screening (HTS) of unknown substances for anti-tumor activity.
The caspase activity of 250 000 Jurkat cells in 100 μl of medium was determined after different incubation times with 1 μg/ml actinomycin D both conventionally and according to the method of accumulated caspase activity according to the invention. Thus, 100 μl of Jurkat cells (2.5×10^6/ml) was incubated in the presence of actinomycin D at 5% CO2 and 37° C. in RPMI medium with 10% FCS and Pen/Strep. After the incubation, the cells were centrifuged by a conventional method and washed with PBS. The pellet was resuspended in 200 μl of lysis buffer, incubated on ice for 10 min and frozen at −20° C. The accumulated caspase activity was determined by mixing 100 μl of the cells incubated with actinomycin D, directly in suspension, with 100 μl of 2× lysis buffer. The lysate was also frozen at −20° C. All lysates were simultaneously thawed, and aminocoumarin-DEVD was added. At room temperature, the release of fluorescent aminocoumarin by caspase was monitored every 5 min over a period of 2 h. From the linear increase of the signal, the slope was calculated as a measure of caspase activity. The spontaneous caspase activities of the Jurkat cells in the absence of actinomycin D, not shown in the Figure, increase with time, but remain lower than 4 min^−1.
The chemosensitivities of U937 and HL60 cells towards the cytostatic agents indicated in FIGS. 3 and 4 were tested in the stated concentration ranges.
The effect of four cytostatic agents on the cell line U937 was tested. Each data point represents the average from three independent experiments.

HL60 cells = assay: Chemosensitivity of HL60 cells, accumulated caspase activity; conditions: promyeloic HL60 cells
Description: as §1
as §2, with “The reduction of the number of cells per sample compartment from 100 to 1000 per test enables highly parallel analyses of samples with extremely few cells from patients, e.g., from fine needle biopsies. The low need of cells also permits the high throughput screening (HTS) of unknown substances for anti-tumor activity.” left out
The caspase activity of 250 000 Jurkat cells in 100 μl of medium was determined after different incubation times with 1 μg/ml actinomycin D both conventionally and according to the method of accumulated caspase activity according to the invention. […] The accumulated caspase activity was determined by mixing 100 μl of the cells incubated with actinomycin D, directly in suspension, with 100 μl of 2× lysis buffer. […] At room temperature, the release of fluorescent aminocoumarin by caspase was monitored every 5 min over a period of 2 h. From the linear increase of the signal, the slope was calculated as a measure of caspase activity. […]

[1] = tested on: isolated cells from the peripheral blood (PBMNC) of healthy volunteers; assay: Chemosensitivity of PBMNC, caspase activity; conditions: PBMNC of healthy subjects; for concentration by which caspase activity can be induced: average from three independent experiments
Description: as §1, §2
For establishing the test for peripheral blood or bone marrow, isolated cells from the peripheral blood (PBMNC) of healthy volunteers were tested first, taking care that acute infections, as frequently encountered in the fall/winter season, could be excluded. FIGS. 5 and 6 illustrate the results of the studies with two cytostatic agents.
As compared to tested leukemia cell lines, the PBMNCs respond later to daunorubicin.

Row | Structure (SMILES) | maximum inducible caspase activity (U937 cells) | effectiveness (apoptosis induction) as concentration increases (U937 cells) | maximum inducible caspase activity reached at the highest concentration measured (HL60 cells) | plateau (unchanging maximum caspase activity) [1] | concentration by which caspase activity can be induced [1] | induced caspase activities (comparison between agents) (HL60 cells) | response compared to tested leukemia cell lines [1] | concentration at maximum in caspase activity (HL60 cells; apoptosis signal decreases at higher concentrations)
1 | Nc1ccn([C@@H]2O[C@H](CO)[C@@H](O)[C@@H]2O)c(=O)n1 [Ara-C, cytosine arabinoside (Ara-C)] | relatively low | also increases | appears not yet to have reached the maximum caspase activity | not reached for any of the tested PBMNCs | > 200 ng/mL |  |  | 
2 | COc1cccc2c1C(=O)c1c(O)c3c(c(O)c1C2=O)C[C@@](O)(C(C)=O)C[C@@H]3O[C@H]1C[C@H](N)[C@H](O)[C@H](C)O1 [daunorubicin] | significantly higher | also increases |  | not reached for the subjects NP1 and NP5 to NP8, and only roughly so for the subjects NP2 to NP4 | > 50 ng/mL | higher caspase activities than Ara-C and prednisolone | respond later | 
3 | Cc1c2oc3c(C)ccc(C(=O)N[C@@H]4C(=O)N[C@H](C(C)C)C(=O)N5CCC[C@H]5C(=O)N(C)CC(=O)N(C)[C@@H](C(C)C)C(=O)O[C@@H]4C)c3nc-2c(C(=O)N[C@@H]2C(=O)N[C@H](C(C)C)C(=O)N3CCC[C@H]3C(=O)N(C)CC(=O)N(C)[C@@H](C(C)C)C(=O)O[C@@H]2C)c(N)c1=O [actinomycin D] (I: T[dV]P[Sar][NMeV] / II: T[dV]P[Sar][NMeV]; ester I:1-I:C, II:1-II:C; linker I:N-II:N via Actinocin(9to1)) | highest | also increases |  |  |  | higher caspase activities than Ara-C and prednisolone |  | 
4 | C[C@]12C=CC(=O)C=C1CC[C@@H]1[C@@H]2[C@@H](O)C[C@@]2(C)[C@H]1CC[C@]2(O)C(=O)CO [prednisolone] |  | no or but a slight apoptosis induction |  |  |  |  |  | about 700 ng/ml
